Measured values: patent publication US10487117B2, “Antimicrobial peptide for nosocomial infections” (priority 2015, dated 2019)
Residues, ends and D or L forms follow the SMILES beside them.

Tests used:
[1] = tested on: LPS (lipopolysaccharides) from P. aeruginosa; test: LPS binding assay, BODIPY TR cadaverine (BC) displacement; parameters: species or system Pseudomonas aeruginosa; details: 100% = total displacement of the dye; mean ± SEM
Procedure: Following, LPS binding affinity was monitored by a fluorometric assay which measures the competitive displacement of a cadaverine fluorescent probe (BC) by the protein and peptides. The half LPS binding affinity (ED50), defined as the AMP concentration needed to achieve half of BC displacement, and the total LPS binding affinity, expressed as a percentage, were determined (Table 4). Interaction with negatively charged surfaces of bacteria is the first step for cationic peptides to reach the bacterial membranes and exert their antimicrobial action.
LPS binding was assessed using the fluorescent probe BODIPY TR cadaverine (BC) as previously described (Pulido D. et al. Febs J 2013). BC binds strongly to native LPS, specifically recognizing the lipid A portion. When a protein that interacts with LPS is added, BC is displaced from the complex and its fluorescence is increased, decreasing its occupancy factor. LPS-binding assays were carried out in a 10 mM Hepes buffer at pH 7.5. The displacement assay was performed using a 96 well microtiter plate containing stirred mixture of either LPS (10 μg/mL) and BC (10 μM). Protein/peptides were serially diluted from 10 to 0.1 μM. Fluorescence measurements were performed on a Victor3 plate reader (Perkin Elmer, Waltham, Mass.). The protein/peptide concentration required to achieve half of total and total BC displacement was estimated from nonlinear regression analysis as previously described (Wood S. J. et al. 2004)

[2] = tested on: pre-established P. aeruginosa biofilm; test: Biofilm cell mortality, BacTiter-Glo luminescent assay; type: cell-based, Pseudomonas aeruginosa; details: 24 h formed biofilm; 4 h at 37° C.; 10% Triton X-100 as maximum reference; N.D. = not detected at 50 μM

| SMILES | LPS binding %max (percentage of maximum displacement) [1] [%] | Biofilm cell mortality (%max) [2] |
| --- | --- | --- |
| CC[C@H](C)[C@H](NC(=O)CNC(=O)[C@@H](NC(=O)[C@H](CCCCN)NC(=O)[C@H](CCCCN)NC(=O)[C@H](Cc1ccccc1)NC(=O)[C@H](CC(C)C)NC(=O)[C@H](CCCCN)NC(=O)[C@H](Cc1c[nH]c2ccccc12)NC(=O)[C@@H](N)CCCCN)[C@@H](C)CC)C(=O)NCC(=O)N[C@@H](C)C(=O)N[C@H](C(=O)N[C@@H](CC(C)C)C(=O)N[C@@H](CCCCN)C(=O)N[C@H](C(=O)N[C@@H](CC(C)C)C(=O)N[C@H](C(=O)N[C@H](C(=O)NCC(=O)N[C@@H](CC(C)C)C(=O)N1CCC[C@H]1C(=O)N[C@@H](C)C(=O)N[C@@H](CC(C)C)C(=O)N[C@H](C(=O)N[C@@H](CO)C(N)=O)[C@@H](C)CC)[C@@H](C)O)[C@@H](C)O)C(C)C)C(C)C [CA-M] | 69.16 ± 6.23 |  |
| CC[C@H](C)[C@H](NC(=O)[C@H](CCC(N)=O)NC(=O)CN)C(=O)N[C@H](C(=O)N[C@@H](CC(N)=O)C(=O)N[C@@H](CC(C)C)C(=O)N[C@@H](CCCCN)C(=O)N[C@@H](C)C(=O)N[C@@H](CO)C(=O)N[C@@H](CC(C)C)C(=O)N[C@@H](CC(=O)O)C(=O)N[C@@H](CC(C)C)C(=O)N[C@@H](CC(C)C)C(N)=O)[C@@H](C)CC [GL-13, GQIINLKASLDLL-NH2] (H-GQIINLKASLDLL-NH2) | 44.37 ± 3.84 | unable to perform any cell mortality |
